Measurements reported in patent US7179627B2, “Cyclooxygenase variants and methods of use” (Brigham Young University, priority 2001, dated 2007).
Where two headings read alike, the source gives them in different places.

Columns and labels:
[1] = active breakdown product of dipyrone; cited from earlier work
mouse COX-1 = biological target: T1, mouse COX-1 (Mus musculus, UniProt P22437); assay: COX activity (PGE2 formation by RIA) in insect cells expressing COX-1, drug inhibition; assay type: cell-based
T1 construct: expressed in transfected cells; host or cells: Sf9 insect cells infected with recombinant baculovirus
T1 sequence (P22437 27-602): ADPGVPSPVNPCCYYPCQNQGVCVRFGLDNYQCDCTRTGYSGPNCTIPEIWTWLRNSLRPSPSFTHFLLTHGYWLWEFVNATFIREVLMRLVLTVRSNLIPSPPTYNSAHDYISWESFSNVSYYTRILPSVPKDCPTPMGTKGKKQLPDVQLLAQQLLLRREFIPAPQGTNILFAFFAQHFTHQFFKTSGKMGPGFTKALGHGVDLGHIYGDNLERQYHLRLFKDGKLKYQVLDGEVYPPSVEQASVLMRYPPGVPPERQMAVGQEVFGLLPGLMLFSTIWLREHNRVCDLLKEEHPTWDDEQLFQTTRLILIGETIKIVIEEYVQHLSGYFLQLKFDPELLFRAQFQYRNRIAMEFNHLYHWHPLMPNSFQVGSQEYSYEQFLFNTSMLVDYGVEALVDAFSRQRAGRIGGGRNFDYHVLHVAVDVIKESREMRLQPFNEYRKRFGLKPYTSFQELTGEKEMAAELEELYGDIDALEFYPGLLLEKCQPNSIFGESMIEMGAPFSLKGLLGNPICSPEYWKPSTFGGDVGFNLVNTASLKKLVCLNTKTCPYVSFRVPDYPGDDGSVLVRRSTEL
Description: (§1) Both COX-3 and PCOX-1a were cloned into the baculovirus expression vector pBlueBac 4.5/V5-His (Invitrogen). Sf9 cells (˜1×10^6) were infected with viral stocks at a multiplicity of infection (MOI) of 3 for expression of COX-3, PCOX-1a, mouse COX-1 and mouse COX-2.
(§2) Sf9 cells were infected with a high titer viral stock at a MOI of3 and cultured for 48 hr. Infected cells expressing COX-3 were aliquoted into tubes (˜1.5×10^6 cells) and centrifuged (1000×g, 5 min). The supernatant was discarded and the cell pellet resuspended in 100 μl serum-free media containing the drug to be tested and preincubated at room temperature for 30 minutes. Arachidonic acid (100 μl, final concentration 5 or 30 μM) was then added, mixed and incubated (37° C., 10 min). Samples were then centrifuged and 100 μl of the supernatant was assayed for COX activity by RIA for PGE2. Assays were performed multiple times in triplicate. Inhibition curves were constructed and IC50 values were determined using Prism® 3.0 (GraphPad, San Diego).

mouse COX-2 = biological target: T2, mouse COX-2 (Mus musculus, UniProt Q05769); assay: COX activity (PGE2 formation by RIA) in insect cells expressing COX-2, drug inhibition; assay type: cell-based
T2 construct: expressed in transfected cells; host or cells: Sf9 insect cells infected with recombinant baculovirus
T2 sequence (Q05769 18-604): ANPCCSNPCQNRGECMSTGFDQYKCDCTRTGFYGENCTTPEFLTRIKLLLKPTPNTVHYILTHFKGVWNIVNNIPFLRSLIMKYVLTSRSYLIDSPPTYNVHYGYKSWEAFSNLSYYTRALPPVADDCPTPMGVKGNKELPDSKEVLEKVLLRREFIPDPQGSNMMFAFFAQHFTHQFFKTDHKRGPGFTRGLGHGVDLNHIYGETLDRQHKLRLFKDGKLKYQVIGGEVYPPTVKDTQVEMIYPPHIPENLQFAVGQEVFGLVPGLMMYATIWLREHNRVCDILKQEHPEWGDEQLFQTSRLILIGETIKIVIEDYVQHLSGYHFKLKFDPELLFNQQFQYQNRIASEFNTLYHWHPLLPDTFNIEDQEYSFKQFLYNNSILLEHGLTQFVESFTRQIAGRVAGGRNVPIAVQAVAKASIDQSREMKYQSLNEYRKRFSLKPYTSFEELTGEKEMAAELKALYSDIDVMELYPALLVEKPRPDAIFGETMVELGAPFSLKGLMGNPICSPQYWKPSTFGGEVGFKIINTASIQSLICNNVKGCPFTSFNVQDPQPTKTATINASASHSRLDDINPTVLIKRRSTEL
Description: as §1
as §2, with “Arachidonic acid (100 μl, final concentration 5 or 30 μM) was then added, mixed and incubated (37° C., 10 min).” left out

COX-3 [2] = biological target: T3, COX-3 (Canis lupus familiaris, UniProt Q8HZR1, E597Q); assay: COX activity (PGE2 formation by RIA) in insect cells expressing COX-3, drug inhibition; assay type: cell-based, canine
T3 construct: V5-His (vector name only); expressed in transfected cells; host or cells: Sf9 insect cells infected with recombinant baculovirus (pBlueBac 4.5/V5-His)
T3 sequence (Q8HZR1 1-633 isoform Q8HZR1-2 E627Q): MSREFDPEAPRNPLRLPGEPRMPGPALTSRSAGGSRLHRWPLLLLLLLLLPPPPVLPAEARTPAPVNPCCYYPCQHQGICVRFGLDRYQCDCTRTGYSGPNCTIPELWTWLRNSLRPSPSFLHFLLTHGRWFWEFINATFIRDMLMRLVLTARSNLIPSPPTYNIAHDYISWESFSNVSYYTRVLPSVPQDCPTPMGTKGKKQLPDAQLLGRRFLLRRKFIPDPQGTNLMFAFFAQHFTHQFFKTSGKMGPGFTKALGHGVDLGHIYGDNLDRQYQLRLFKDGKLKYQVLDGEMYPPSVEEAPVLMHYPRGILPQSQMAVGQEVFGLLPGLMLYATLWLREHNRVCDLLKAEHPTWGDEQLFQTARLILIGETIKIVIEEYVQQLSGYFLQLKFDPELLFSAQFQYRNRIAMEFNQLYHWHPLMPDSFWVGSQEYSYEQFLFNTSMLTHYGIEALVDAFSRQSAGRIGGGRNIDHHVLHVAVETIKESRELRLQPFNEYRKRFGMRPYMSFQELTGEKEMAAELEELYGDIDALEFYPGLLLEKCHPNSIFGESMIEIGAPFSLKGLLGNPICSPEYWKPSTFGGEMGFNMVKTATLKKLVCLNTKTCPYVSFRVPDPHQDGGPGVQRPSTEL
Description: as §1
as §2, with “Arachidonic acid (100 μl, final concentration 5 or 30 μM) was then added, mixed and incubated (37° C., 10 min).” left out

COX-3 [3] = assay: COX activity of intact tunicamycin-treated insect cells by RIA; assay type: cell-based, canine; details: 10 μg/ml, harvested after 48 hr
Description: Tunicamycin was added to a final concentration of 10 μg/ml to insect cells 1 hr after infection with baculovirus constructs. The cells were cultured and harvested after 48 hr. COX activity of intact cells was determined by radioimmunoassay (RIA) (Salmon, 1978). COX activity in intact Tu-treated cells was compared with activity in untreated cells infected with the appropriate virus (MOI=3).

[4] = 30 μM arachidonic acid, insect cells, PGE2 by RIA, read-out: IC50, μM COX-1
[5] = 30 μM arachidonic acid, insect cells, PGE2 by RIA, read-out: IC50, μM COX-2
[6] = substrate conditions of 30 μM arachidonic acid, read-out: IC50 value for COX-3
[7] = 30 μM arachidonic acid, insect cells, PGE2 by RIA, read-out: IC50, μM COX-3

Molecule: CNc1c(C)n(C)n(-c2ccccc2)c1=O [4-methylaminoantipyrine]
- concentration reached in plasma [1]: 104 µM
- concentration reached in the central nervous system [1]: 86 µM

Molecule: Cc1c(N(C)C)c(=O)n(-c2ccccc2)n1C [Aminopyrine, 4-dimethylaminoantipyrine]
- IC50 (mouse COX-1; [4]): > 1000 µM
- IC50 (mouse COX-2; [5]): > 1000 µM
- IC50 (COX-3 [2]; [6]): 688 µM

Molecule: Cc1cc(=O)n(-c2ccccc2)n1C [Antipyrine]
- IC50 (mouse COX-1): > 1000 µM
- IC50 (mouse COX-2): > 1000 µM
- IC50 (COX-3 [2]; IC50, μM COX-3, 30 mM arachidonic acid, insect cells, PGE2 by RIA): 863 µM
- IC50 (COX-3 [2]; IC50 value for COX-3, substrate conditions of 30 μM arachidonic acid): 862 µM

Molecule: CC(=O)Oc1ccccc1C(=O)O [Aspirin]
- IC50 (COX-3 [2]; [7]): 3.1 µM

Molecule: Cn1c(=O)c2c(ncn2C)n(C)c1=O [Caffeine]
- IC50 (mouse COX-1; [4]): > 1000 µM
- IC50 (mouse COX-2; [5]): > 1000 µM
- IC50 (COX-3 [2]; [7]): > 1000 µM

Molecule: O=C(O)Cc1ccccc1Nc1c(Cl)cccc1Cl [Diclofenac]
- IC50 (mouse COX-1): 0.035 µM

Molecule: Cc1c(N(C)CS(=O)(=O)[O-])c(=O)n(-c2ccccc2)n1C.[Na+] [Dipyrone]
- concentration inhibiting COX-1, fold higher than COX-3 IC50 (mouse COX-1; 30 μM arachidonic acid (FIG. 13, panel D)): 6.6 fold
- IC50 (mouse COX-1; [4]): 350 µM
- IC50 (mouse COX-2; [5]): > 1000 µM
- inhibition of COX-2 (mouse COX-2; below 1 mM): No detectable inhibition
- IC50 (COX-3 [2]; [6]): 52 µM

Molecule: CCOc1ccc(NC(C)=O)cc1 [Phenacetin]
- IC50 (mouse COX-1; [4]): > 1000 µM
- IC50 (mouse COX-2; [5]): > 1000 µM
- IC50 (COX-3 [2]; [6]): 102 µM

Molecule: O=C1CCC(N2C(=O)c3ccccc3C2=O)C(=O)N1 (stereo not drawn) [Thalidomide]
- IC50 (mouse COX-1; [4]): > 1000 µM
- IC50 (mouse COX-2; [5]): > 1000 µM
- IC50 (COX-3 [2]; [7]): > 1000 µM

Molecule: O=C([O-])c1ccccc1O.[Na+] [sodium salicylate]
- sensitivity of COX-3 to the drug compared with COX-1 or COX-2 (COX-3 [2]): less sensitive

Molecule: tunicamycin
- COX activity in cells treated with tunicamycin (COX-3 [3]): significantly decreased or abolished
